{"source": "patent US20110071197A1", "about": "“BIS-ARYL COMPOUNDS FOR USE AS MEDICAMENTS” (priority 2008, published 2011)", "data": [{"target": "T1, Recombinant human LTC4 synthase (Homo sapiens, UniProt Q16873)", "T1 construct": "made in house; host or cells: Pichia pastoris", "T1 sequence (Q16873 1-150)": "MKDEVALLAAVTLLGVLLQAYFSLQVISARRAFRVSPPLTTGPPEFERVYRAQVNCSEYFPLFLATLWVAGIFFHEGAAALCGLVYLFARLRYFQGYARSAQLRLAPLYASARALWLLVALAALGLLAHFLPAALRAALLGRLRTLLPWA", "assay": "LTC4 synthase in vitro assay (HTRF detection of LTC4)", "type": "biochemical", "details": "compound concentration 3 μM; HTRF method", "how_it_was_run": "(§1)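 Pichia-expressed recombinant human LTC4 synthase at 0.5 μg/ml total protein in PBS pH 7.4 with 5 mM GSH, preincubated 10 min at RT with inhibitor (10 μM final). LTA4 (2.5 μM final) was then added for 5 min at RT. LTC4 formed was read by HTRF.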", "units": {"inhibition at 3 µM": "%"}, "values": [{"compound": "Cc1nc(C(F)(F)F)ccc1C(=O)Nc1ccc(Oc2ccc(NC(=O)c3ccc(C(F)(F)F)cc3)c(C(=O)O)c2)cc1", "note": "[8:5, 5-[4-((2-methyl-6-(trifluoro-methyl)-pyridine-3-carbonyl)-amino)-phenoxy]-2-(4-(trifluoro-methyl)-benzoylamino)-benzoic acid]", "inhibition at 3 µM": 83}, {"compound": "O=C(Nc1ccc(Oc2ccc(NC(=O)c3ccc(Cl)c(Cl)c3)c(C(=O)O)c2)cc1C(=O)O)c1ccc(F)c(F)c1", "note": "[1:8, 5-[3-carboxy-4-(3,4-difluorobenz-amido)phenyloxy]-2-(3,4-dichloro-benzamido)benzoic acid]", "% inh.": "99 (3 μM) %"}]}, {"target": "T1, Recombinant human LTC4 synthase", "assay": "LTC4 synthase in vitro assay (HTRF detection of LTC4)", "type": "biochemical", "details": "total concentration of title compound in the assay 10 μM; HTRF method", "how_it_was_run": "as §1", "units": {"% inh.": "%", "inhibition at 10 µM": "%"}, "values": [{"compound": "CC(C)(C)c1ccc(C(=O)Nc2ccc(Oc3ccc(NC(=O)c4ccc(Cl)cc4Cl)c(C(=O)O)c3)cc2)cc1", "note": "[Example 8:1, 5-(4-(4-tert-butylbenzamido)-phenoxy)-2-(2,4-dichlorobenz-amido)benzoic acid]", "% inh.": 100}, {"compound": "O=C(O)Cc1cc(Oc2ccc(NC(=O)c3ccc(C(F)(F)F)cc3F)c(C(=O)O)c2)ccc1NC(=O)c1cc(Cl)ccc1O", "note": "[6:2, 5-[3-carboxymethyl-4-(5-chloro-2-hydroxybenzoylamino)-phenoxy]-2-(2-fluoro-4-trifluoromethyl-benzoylamino)benzoic acid]", "inhibition at 10 µM": 98}, {"compound": "2-(2,3-dichlorobenzylamino)-5-{4-[(4-methoxybenzene-sulfonyl)methyl-amino]-phenoxy}benzoic acid [Example 11:12]", "% inh.": 92}, {"compound": "CCCCc1ccc(S(=O)(=O)N(C)c2ccc(Oc3ccc(NC(=O)c4ccc(C)cc4)c(C(=O)O)c3)cc2)cc1", "note": "[11:5, 5-{4-[(4-butyl-benzenesulfonyl)-methylamino]phenoxy}-2-(4-methylbenzoylamino)benzoic acid]", "inhibition at 10 µM": 99}, {"compound": "Cc1nc(C(F)(F)F)ccc1C(=O)Nc1ccc(Oc2ccc(NC(=O)c3ccc(OC(C)C)cc3)cc2)cc1C(=O)O", "note": "[8:14, 5-[4-(4-isopropoxybenzoyl-amino)phenoxy]-2-[(2-methyl-6-trifluoromethylpyridine-3-carbonyl)amino]benzoic acid]", "inhibition at 10 µM": 100}, {"compound": "COc1ccc(S(=O)(=O)N(C)c2ccc(Oc3ccc(NC(=O)c4ccccc4C(F)(F)F)c(C(=O)O)c3)cc2)cc1", "note": "[11:18, 5-{4-[(4-Methoxy-benzenesulfonyl)-methyl-amino]-phenoxy}-2-(2-trifluoromethyl-benzoylamino)-benzoic acid]", "inhibition at 10 µM": 96}, {"compound": "O=C(Nc1ccc(S(=O)(=O)c2ccc(NC(=O)c3ccc(C(F)(F)F)cc3)c(C(=O)O)c2)cc1C(=O)O)c1ccc(C(F)(F)F)cc1", "note": "[16:2, 2-(4-(trifluoromethyl)benz-amido)-5-((4-(4-(trifluoro-methyl)benzamido)-3-carboxyphenyl)sulfonyl)-benzoic acid]", "% inh.": 97}, {"compound": "O=C(Nc1ccc(Oc2ccc(NC(=O)c3cccc(Cl)c3)c(C(=O)O)c2)cc1C(=O)O)c1cccc(Cl)c1", "note": "[4:4, 5-[3-carboxy-4-(3-chlorobenzamido)phenyloxy]-2-(3-chlorobenzamido)benzoic acid]", "inhibition at 10 µM": 99}, {"compound": "O=C(O)Cc1cc(Oc2ccc(NC(=O)c3ccc(C(F)(F)F)cc3F)cc2)ccc1NC(=O)c1cccc(Cl)c1", "note": "[17:1, {2-(3-chloro-benzoylamino)-5-[4-(2-fluoro-4-trifluoromethyl-benzoylamino)-phenoxy]-phenyl}-acetic acid]", "inhibition at 10 µM": 96}, {"compound": "O=C(Nc1ccc(Oc2ccc(NC(=O)c3ccc([N+](=O)[O-])cc3)c(C(=O)O)c2)cc1C(=O)O)c1ccc([N+](=O)[O-])cc1", "note": "[4:3, 5-[3-carboxy-4-(4-nitrobenzamido)phenyloxy]-2-(4-nitrobenzamido)benzoic acid]", "inhibition at 10 µM": 97}, {"compound": "O=C(Nc1ccc(Oc2cccc(S(=O)(=O)Nc3ccc(F)c(F)c3)c2)cc1C(=O)O)c1ccc(Cl)cc1Cl", "note": "[19:3, 2-(2,4-Dichloro-benzoylamino)-5-[3-(3,4-difluoro-phenylsufamoyl)-phenoxy]-benzoic acid]", "% inh.": 100}, {"compound": "O=C(Nc1ccc(Oc2ccc(NC(=O)c3ccc(OC(F)(F)F)cc3)c(C(=O)O)c2)cc1)c1ccccc1", "note": "[8:10, 5-(4-benzoylaminophenoxy)-2-(4-trifluoromethoxy-benzoylamino)benzoic acid]", "inhibition at 10 µM": 67}, {"compound": "O=C(Nc1ccc(Oc2ccc([N+](=O)[O-])c(C(=O)O)c2)cc1C(=O)O)c1ccccc1", "note": "[3:1, 2-benzamido-5-(3-carboxy-4-nitrophenoxy)benzoic acid]", "inhibition at 10 µM": 65}, {"compound": "COc1ccc(S(=O)(=O)N(C)c2ccc(Oc3ccc(NC(=O)c4ccc(Cl)cc4Cl)c(C(=O)O)c3)cc2)cc1", "note": "[11:4]", "% inh.": 98}, {"compound": "O=C(O)c1cc(Nc2ccc(F)c(F)c2)cc(Oc2ccc(Nc3ccc(Cl)cc3)cc2)c1", "note": "[18:2, 3-[4-(4-Chloro-phenylamino)-phenoxy]-5-(3,4-difluoro-phenylamino)-benzoic acid]", "inhibition at 10 µM": 97}, {"compound": "CN(c1cc(Oc2ccc(NC(=O)c3cccc(Cl)c3)cc2)cc(C(=O)O)c1)c1ccc(F)c(F)c1", "note": "[18:6, 3-[4-(3-Chloro-benzoylamino)-phenoxy]-5-[(3,4-difluoro-phenyl)-methyl-amino]-benzoic acid]", "inhibition at 10 µM": 96}, {"compound": "O=C(Nc1ccc([S+]([O-])c2ccc(NC(=O)c3cccc(Cl)c3)c(C(=O)O)c2)cc1C(=O)O)c1cccc(Cl)c1", "note": "[15:2, 2-(3-chlorobenzamido)-5-(4-(3-chlorobenzamido)-3-carboxyphenylsulfinyl)benzoic acid]", "inhibition at 10 µM": 100}, {"compound": "CCCCOc1ccc(S(=O)(=O)Nc2ccc(Oc3cccc(C(=O)NS(=O)(=O)c4ccc(F)cc4)c3)cc2C(=O)OC(C)(C)C)cc1", "note": "[20:4, 2-(4-Butoxy-benzenesulfonylamino)-5-[3-(4-fluoro-benzenesulfonylamino-carbonyl)-phenoxy]-benzoic acid t-butyl ester]", "inhibition at 10 µM": 99}, {"compound": "COc1ccc(C(=O)Nc2ccc(Oc3ccc(N(C)C(=O)c4ccc(C(C)(C)C)cc4)cc3)cc2C(=O)O)cc1", "note": "[9:2, 5-(4-((N-methyl)-4-tert-butylbenz-amido)phenoxy)-2-(4-methoxybenz-amido)benzoic acid]", "% inh.": 96}, {"compound": "O=C(O)c1cc(Oc2cccc(NCc3cccc(Cl)c3F)c2)ccc1NS(=O)(=O)c1ccc(Cl)cc1Cl", "note": "[23:5, 5-[3-(3-Chloro-2-fluorobenzylamino)-phenoxy]-2-(2,4-dichlorobenzene-sulfonylamino)benzoic acid]", "inhibition at 10 µM": 98}, {"compound": "CN(C(=O)c1ccc(C(F)(F)F)cc1)c1ccc(Oc2ccc(NC(=O)c3ccc(Cl)cc3Cl)c(C(=O)O)c2)cc1", "note": "[9:5, 5-(4-((N-methyl)-4-trifluoromethyl-benzamido)phenoxy)-2-(2,4-dichloro-benzamido)benzoic acid]", "inhibition at 10 µM": 98}, {"compound": "CCCCOc1ccc(S(=O)(=O)Nc2ccc(Oc3ccc(Nc4ccc(F)c(F)c4)cc3C(=O)O)cc2C(=O)O)cc1", "note": "[Example 1:9, 2-(4-butoxybenzenesulfonyl-amino)-5-[4-(2-carboxy)(3,4-di-fluorophenylamino)phenoxy]-benzoic acid]", "% inh.": 100}, {"compound": "O=C(Nc1ccc(Oc2ccc(NC(=O)c3cccc(Cl)c3)c(C(=O)O)c2)cc1C(=O)O)c1ccccc1", "note": "[5:3, 5-[3-carboxy-4-(3-chlorobenzamido)-phenyloxy]-2-benzamidobenzoic acid]", "inhibition at 10 µM": 100}, {"compound": "COc1ccc(S(=O)(=O)N(C)c2ccc(Oc3ccc(NC(=O)c4c(F)cccc4F)c(C(=O)O)c3)cc2)cc1", "note": "[11:16, 2-(2,6-Difluoro-benzoylamino)-5-{4-[(4-methoxy-benzenesulfonyl)-methyl-amino]-phenoxy}-benzoic acid]", "inhibition at 10 µM": 94}]}]}
